B1: rhCYP2C9 (Homo sapiens) (protein)
chain: MDSLVVLVLCLSCLLLLSLWRQSSGRGKLPPGPTPLPVIGNILQIGIKDISKSLTNLSKVYGPVFTLYFGLKPIVVLHGYEAVKEALIDLGEEFSGRGIFPLAERANRGFGIVFSNGKKWKEIRRFSLMTLRNFGMGKRSIEDRVQEEARCLVEELRKTKASPCDPTFILGCAPCNVICSIIFHKRFDYKDQQFLNLMEKLNENIKILSSPWIQICNNFSPIIDYFPGTHNKLLKNVAFMKSYILEKVKEHQESMDMNNPQDFIDCFLMKMEKEKHNQPSEFTIESLENTAVDLFGAGTETTSTTLRYALLLLLKHPEVTAKVQEEIERVIGRNRSPCMQDRSHMPYTDAVVHEVQRYIDLLPTSLPHAVTCDIKFRNYLIPKGTTILISLTSVLHDNKEFPNPEMFDPHHFLDEGGNFKKSKYFMPFSAGKRICVGEALAGMELFLFLTSILQNFNLKSLVDPKNLDTTPVVNGFASVPPFYQLCFIPV
B2: rhCYP2C19 (Homo sapiens) (protein)
chain: MDPFVVLVLCLSCLLLLSIWRQSSGRGKLPPGPTPLPVIGNILQIDIKDVSKSLTNLSKIYGPVFTLYFGLERMVVLHGYEVVKEALIDLGEEFSGRGHFPLAERANRGFGIVFSNGKRWKEIRRFSLMTLRNFGMGKRSIEDRVQEEARCLVEELRKTKASPCDPTFILGCAPCNVICSIIFQKRFDYKDQQFLNLMEKLNENIRIVSTPWIQICNNFPTIIDYFPGTHNKLLKNLAFMESDILEKVKEHQESMDINNPRDFIDCFLIKMEKEKQNQQSEFTIENLVITAADLLGAGTETTSTTLRYALLLLLKHPEVTAKVQEEIERVIGRNRSPCMQDRGHMPYTDAVVHEVQRYIDLIPTSLPHAVTCDVKFRNYLIPKGTTILTSLTSVLHDNKEFPNPEMFDPRHFLDEGGNFKKSNYFMPFSAGKRICVGEGLARMELFLFLTFILQNFNLKSLIDPKDLDTTPVVNGFASVPPFYQLCFIPV

What was measured:
[1] = system: human liver microsomes (HLM); conditions: mean over voriconazole 0.5, 1, 2, 3 µM
[2] = system: CYP2C19 (loratadine), CYP2C9 (sulfaphenazole), CYP3A4 (ketoconazole); assay: in vitro; conditions: human; for inhibition at 3 µM: pH 7.5; for activity: pH 7.5, % of Uninhibited Control (voriconazole N-oxidation velocity), HLM
not read = substrate: C[C@@H](c1ncncc1F)[C@](O)(Cn1cncn1)c1ccc(F)cc1F; assay: not read; conditions: other: N-oxidation of voriconazole

| Molecule | Mean (SD) % of Uninhibited Control [1] | inhibition at 3 µM [2] [%] | activity ([2]; voriconazole 0.5 µM) [%] | activity ([2]; voriconazole 1 µM) [%] | activity ([2]; voriconazole 2 µM) [%] | activity ([2]; voriconazole 3 µM) [%] | Km (not read; rhCYP2C9, pH 7.5) | Km (not read; rhCYP2C19, pH 7.5) |
| --- | --- | --- | --- | --- | --- | --- | --- | --- |
| CC(=O)N1CCN(c2ccc(OCC3COC(Cn4ccnc4)(c4ccc(Cl)cc4Cl)O3)cc2)CC1 (centres unmarked) [ketoconazole] | 52.4 (4.26) % | 47.6 | 49.8 | 48.4 | 53.6 | 57.9 |  |  |
| Nc1ccc(S(=O)(=O)Nc2ccnn2-c2ccccc2)cc1 [sulfaphenazole] | 63.8 (2.69) % | 36.2 | 64.8 | 60.7 | 62.6 | 66.9 |  |  |
| B1 |  |  |  |  |  |  | 4.06 (3.32–4.81) µM |  |
| B2 |  |  |  |  |  |  |  | 1.31 (0.862–1.75) µM |
